Assay [1] deals with T1, Human Cav3.2 (Homo sapiens, UniProt O95180).
T1 construct: expressed in transfected cells
Kind of assay: Electrophysiologic (whole-cell patch-clamp) assessment of calcium channel activity, HEK293 cells stably expressing hCav3.2. The class given is cell-based. The following applies: −77 mV, GeoMean. The procedure: (ii) In Vitro Methods—Electrophysiologic Assessment of Calcium Channel Activity
Patch-clamp recordings were performed using HEK293 cells stably expressing hCav3.2. Cells were plated in T175 flasks and grown at 37° C. and under 5% CO2 to approximately 50% confluency. On the day of the experiment, cells were harvested with Detachin™ cell detachment solution (Genlantis, San Diego, Calif.) and maintained in serum-free culture medium supplemented with 25 mM HEPES up to several hours prior to experiment. Whole-cell patch-clamp recordings were obtained using extracellular saline consisting of (mM): 87.5 CsCl, 40 TEA-Cl, 5 CaCl2, 1 MgCl2, 10 HEPES, 10 glucose. The pH was adjusted to 7.2 with CsOH and the osmolarity was adjusted to approximately 310 mOsm with sucrose. Intracellular solution consisted of (mM): 112 CsCl, 27 CsF, 2 NaCl, 8.2 EGTA, 10 HEPES. Prior to an experiment 4 mM Mg2ATP was added and the pH was adjusted to 7.2 with CsOH with an osmolarity of approximately 290 mOsm. A two-pulse voltage protocol was utilized to assess compound inhibition. First, cells were held with an 8 second pre-pulse at −100 mV prior to a 160 millisecond test pulse to −30 mV. This was followed by an 8 second pre-pulse at approximately −75 mV prior to a […] test pulse to −30 mV. Increasing concentrations of antagonist were applied to individual cells in a multi-addition format with 5 minutes in each test concentration. For each cell, responses were normalized to dimethyl sulfoxide vehicle control to generate concentration-response curves.
In general terms: Patch clamp records ionic current or voltage across a cell membrane.

The subject of assay [2] is Sprague Dawley rats. Kind of assay: Capsaicin induced secondary mechanical hyperalgesia model. The class given is in vivo. Conditions: po, 1 h; 30 mg/kg p.o., 60 minutes before testing; relative to vehicle; secondary mechanical hyperalgesia 180 minutes after capsaicin; rat. The procedure: (iii) In Vivo Data—Capsaicin Induced Secondary Mechanical Hyperalgesia Model
Sprague Dawley rats were briefly restrained, and capsaicin was administered at 10 μg in 10 μL of vehicle by intraplantar injection into the center of the right hind paw. Secondary mechanical hyperalgesia (SMH) was measured at the heel away from the site of injection 180 minutes following capsaicin exposure. Compounds and gabapentin (positive control), were administered p.o. 60 minutes before testing (2 hours after capsaicin) or i.p. 30 minutes before testing (2.5 hours after capsaicin). SMH was measured using calibrated von Frey filaments (Stoelting, Woodale, Ill.). Following the 1 hour habituation in the testing room, rats were moved to individual plexiglass chambers that sit on top of a wire mesh to allow for access for stimulation of the plantar surface of the hind paws. Rats were allowed to acclimate to the new chambers for 15 minutes before the onset of testing. The paw withdrawal threshold was determined by increasing and decreasing stimulus intensity (force: g) and calculated using Dixon's up-down method (Chaplan, S R; et al. J. Neuroscience Methods 1994; 53: 55-63). The filaments (maximum force of 15.0 g) were held in place for 8 seconds or until there was a withdrawal response from the mechanical stimulation.

T1 sequence (O95180 whole entry): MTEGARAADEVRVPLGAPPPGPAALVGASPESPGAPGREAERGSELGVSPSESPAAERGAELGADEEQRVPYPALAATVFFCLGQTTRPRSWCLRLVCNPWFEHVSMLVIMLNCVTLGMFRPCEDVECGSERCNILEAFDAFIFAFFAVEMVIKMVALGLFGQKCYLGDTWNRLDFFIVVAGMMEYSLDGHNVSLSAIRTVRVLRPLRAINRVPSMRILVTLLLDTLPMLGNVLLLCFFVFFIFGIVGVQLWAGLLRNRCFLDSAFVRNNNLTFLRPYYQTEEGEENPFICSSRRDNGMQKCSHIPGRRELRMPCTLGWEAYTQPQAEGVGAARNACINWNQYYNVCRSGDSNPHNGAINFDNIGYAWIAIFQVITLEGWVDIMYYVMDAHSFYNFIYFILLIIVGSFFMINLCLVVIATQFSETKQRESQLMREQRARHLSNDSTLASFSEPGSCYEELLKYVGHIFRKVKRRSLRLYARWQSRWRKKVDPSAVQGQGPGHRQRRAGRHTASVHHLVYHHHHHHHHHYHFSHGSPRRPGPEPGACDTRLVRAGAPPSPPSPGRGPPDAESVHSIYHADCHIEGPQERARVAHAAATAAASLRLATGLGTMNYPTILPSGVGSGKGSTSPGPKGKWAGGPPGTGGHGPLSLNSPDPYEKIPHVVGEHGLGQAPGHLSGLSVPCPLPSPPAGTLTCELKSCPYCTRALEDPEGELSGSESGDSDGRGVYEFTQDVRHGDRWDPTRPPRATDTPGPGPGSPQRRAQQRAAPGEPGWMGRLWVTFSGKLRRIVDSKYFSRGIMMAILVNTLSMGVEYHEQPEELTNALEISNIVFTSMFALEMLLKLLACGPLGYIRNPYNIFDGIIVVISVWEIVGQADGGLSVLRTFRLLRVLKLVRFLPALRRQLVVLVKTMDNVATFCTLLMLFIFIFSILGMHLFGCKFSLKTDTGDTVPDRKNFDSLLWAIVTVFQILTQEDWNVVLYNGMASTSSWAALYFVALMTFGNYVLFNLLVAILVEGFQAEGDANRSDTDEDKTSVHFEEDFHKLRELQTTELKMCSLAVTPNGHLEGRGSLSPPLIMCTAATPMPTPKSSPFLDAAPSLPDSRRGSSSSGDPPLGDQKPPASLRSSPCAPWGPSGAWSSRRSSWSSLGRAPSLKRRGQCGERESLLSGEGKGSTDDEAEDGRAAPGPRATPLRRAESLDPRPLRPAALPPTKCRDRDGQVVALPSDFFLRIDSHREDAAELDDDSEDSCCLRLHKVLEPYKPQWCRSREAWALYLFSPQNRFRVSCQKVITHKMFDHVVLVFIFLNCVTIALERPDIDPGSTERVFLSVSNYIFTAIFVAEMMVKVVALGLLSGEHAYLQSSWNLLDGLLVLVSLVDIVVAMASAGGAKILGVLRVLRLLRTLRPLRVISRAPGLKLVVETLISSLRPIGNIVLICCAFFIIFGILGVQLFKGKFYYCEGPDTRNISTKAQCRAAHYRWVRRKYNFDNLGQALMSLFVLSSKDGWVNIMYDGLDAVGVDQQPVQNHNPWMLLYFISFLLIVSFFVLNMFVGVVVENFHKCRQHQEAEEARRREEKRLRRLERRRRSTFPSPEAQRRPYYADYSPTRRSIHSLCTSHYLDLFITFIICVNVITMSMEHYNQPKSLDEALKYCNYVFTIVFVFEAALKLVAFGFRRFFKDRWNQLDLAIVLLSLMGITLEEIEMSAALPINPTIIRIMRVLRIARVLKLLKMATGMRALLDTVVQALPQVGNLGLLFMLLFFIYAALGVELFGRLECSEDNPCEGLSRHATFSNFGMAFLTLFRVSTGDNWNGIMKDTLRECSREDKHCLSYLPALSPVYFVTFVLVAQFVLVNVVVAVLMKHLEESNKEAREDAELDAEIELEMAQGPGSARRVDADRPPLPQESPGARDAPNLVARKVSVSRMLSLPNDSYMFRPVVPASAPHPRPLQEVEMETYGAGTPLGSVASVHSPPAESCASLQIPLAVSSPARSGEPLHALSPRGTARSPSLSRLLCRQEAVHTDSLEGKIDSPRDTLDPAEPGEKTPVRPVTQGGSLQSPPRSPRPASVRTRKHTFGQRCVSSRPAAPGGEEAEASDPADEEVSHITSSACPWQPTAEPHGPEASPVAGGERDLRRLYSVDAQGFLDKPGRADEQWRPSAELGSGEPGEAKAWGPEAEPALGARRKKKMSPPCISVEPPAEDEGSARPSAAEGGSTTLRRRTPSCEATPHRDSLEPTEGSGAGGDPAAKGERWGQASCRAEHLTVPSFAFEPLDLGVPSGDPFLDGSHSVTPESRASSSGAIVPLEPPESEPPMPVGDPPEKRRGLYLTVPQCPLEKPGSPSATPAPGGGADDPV

As a reminder, the IC50 is the point on the concentration scale where inhibition reaches its midpoint. The inhibition in vivo is the relative decrease from the control value, in per cent. For `O=C(CN1CCCC(c2ccccc2)(c2ccccc2)C1=O)N1C[C@@H]2CN[C@@H](C2)C1` (relative stereo) [Example 13, 1-{2-[(1S*,5S*)-3,6-Diazabicyclo[3.2.1]oct-3-yl]-2-oxoethyl}-3,3-diphenylpiperidin-2-one], the IC50 in assay [1] stood at 3.6 µM. In assay [2], the inhibition in vivo at 30 mg/kg worked out at 60%.
`O=C(CN1CCCC(c2ccccc2)(c2ccccc2)C1=O)NC1CCNCC1` [Example 1, 2-(2-Oxo-3,3-diphenylpiperidin-1-yl)-N-(piperidin-4-yl)acetamide]: the IC50 in assay [1] is greater than 10 µM.
For `CC1(C)C(=O)NCCN1C(=O)CN1CCCC(c2ccccc2)(c2ccccc2)C1=O` [Example 2, 3,3-Dimethyl-4-[(2-oxo-3,3-diphenylpiperidin-1-yl)acetyl]piperazin-2-one], the IC50 in assay [1] stood at 2.77 µM.
With `O=C(CN1CCCC(c2ccccc2)(c2ccccc2)C1=O)N1C[C@@H]2CCCN[C@@H]2C1` [Example 3, 1-{2-[(4aS,7aS)-Octahydro-6H-pyrrolo[3,4-b]pyridin-6-yl]-2-oxoethyl}-3,3-diphenylpiperidin-2-one], in assay [1], the IC50 came to 4.35 µM. For the same molecule, the inhibition in vivo at 30 mg/kg in assay [2] came to 31%.
For `O=C(CN1CCCC(c2ccccc2)(c2ccccc2)C1=O)N1C[C@H]2CCCN[C@H]2C1` [Example 4, 1-{2-[(4aR,7aR)-Octahydro-6H-pyrrolo[3,4-b]pyridin-6-yl]-2-oxoethyl}-3,3-diphenylpiperidin-2-one], in that order: greater than 10 µM and 19%.
As for `O=C(CN1CCCC(c2ccccc2)(c2ccccc2)C1=O)N1CCC[C@H]2CNC[C@H]21` [Example 5, 1-{2-[(4aS,7aS)-Octahydro-1H-pyrrolo[3,4-b]pyridin-1-yl]-2-oxoethyl}-3,3-diphenylpiperidin-2-one], the IC50 in assay [1] turned out to be 1.6 µM.
Take `O=C(CN1CCCC(c2ccccc2)(c2ccccc2)C1=O)N1CC2CNCC2C1` (stereo not shown) [Example 6, 1-(2-Hexahydropyrrolo[3,4-c]pyrrol-2(1H)-yl-2-oxoethyl)-3,3-diphenylpiperidin-2-one]: the IC50 in assay [1] is 5.31 µM. The inhibition in vivo at 30 mg/kg in assay [2] came out at 74%.
The like results for `O=C(CN1CCCC(c2ccccc2)(c2ccccc2)C1=O)N1CC2(CCNCC2)C1` [Example 7, 1-[2-(2,7-Diazaspiro[3.5]non-2-yl)-2-oxoethyl]-3,3-diphenylpiperidin-2-one] were, in that order, 5.8 µM and 19%.
As to `O=C(CN1CCCC(c2ccccc2)(c2ccccc2)C1=O)NC[C@H]1CCCN1` [Example 8, 2-(2-Oxo-3,3-diphenylpiperidin-1-yl)-N-[(2R)-pyrrolidin-2-ylmethyl]acetamide], in assay [1], the IC50 is greater than 10 µM.
Same read-out and setting: the result for `O=C(CN1CCCC(c2ccccc2)(c2ccccc2)C1=O)NC[C@@H]1CCCN1` [Example 9, 2-(2-Oxo-3,3-diphenylpiperidin-1-yl)-N-[(2S)-pyrrolidin-2-ylmethyl]acetamide] reads 5.86 µM; that for `O=C1CN(C(=O)CN2CCCC(c3ccccc3)(c3ccccc3)C2=O)CCN1` [Example 10, 4-[(2-Oxo-3,3-diphenylpiperidin-1-yl)acetyl]piperazin-2-one], greater than 10 µM.
Regarding `O=C(CN1CCCC(c2ccccc2)(c2ccccc2)C1=O)NC1CNC1` [Example 11, N-Azetidin-3-yl-2-(2-oxo-3,3-diphenylpiperidin-1-yl)acetamide], the concentration for half-maximal inhibition (IC50) in assay [1] was 0.56 µM.
For `O=C(CN1CCCC(c2ccccc2)(c2ccccc2)C1=O)N1CCNCC1` [Example 12, 1-(2-Oxo-2-piperazin-1-ylethyl)-3,3-diphenylpiperidin-2-one], the IC50 in assay [1] was greater than 10 µM. In addition, in assay [2], the inhibition in vivo at 30 mg/kg was found to be 41%.
For `O=C(CN1CCC(c2ccc(F)cc2)(c2ccc(F)cc2)C1=O)N1CCNCC1` [Example 14, 3,3-Bis(4-fluorophenyl)-1-(2-oxo-2-piperazin-1-ylethyl)pyrrolidin-2-one], in that order: 7.75 µM and 52%.
With `O=C(CN1CCC(c2ccc(F)cc2)(c2ccc(F)cc2)C1=O)N1CCN2CCC[C@@H]2C1` [Example 15, 3,3-Bis(4-fluorophenyl)-1-{2-[(8aR)-hexahydropyrrolo[1,2-a]pyrazin-2(1H)-yl]-2-oxoethyl}pyrrolidin-2-one], in assay [1], the IC50 was 2.16 µM.
Consider `O=C(CN1CCC(c2ccc(F)cc2)(c2ccc(F)cc2)C1=O)NC1CNC1` [Example 16, N-Azetidin-3-yl-2-[3,3-bis(4-fluorophenyl)-2-oxopyrrolidin-1-yl]acetamide], for which the IC50 in assay [1] stood at 0.82 µM.
On the same count and under the same terms, next, `O=C(CN1CCC(c2ccc(F)cc2)(c2ccc(F)cc2)C1=O)N(C1CCNCC1)C1CC1` [Example 17, 2-[3,3-Bis(4-fluorophenyl)-2-oxopyrrolidin-1-yl]-N-cyclopropyl-N-piperidin-4-ylacetamide]: 4.07 µM.
In the case of `O=C(CN1CCC(c2ccc(F)cc2)(c2ccc(F)cc2)C1=O)N(C1CCC1)C1CCNCC1` [Example 18, 2-[3,3-Bis(4-fluorophenyl)-2-oxopyrrolidin-1-yl]-N-cyclobutyl-N-piperidin-4-ylacetamide], the IC50 in assay [1] was 9.1 µM. Moreover, the inhibition in vivo at 30 mg/kg in assay [2] was 5%.
Regarding `O=C(CN1CCC(c2ccc(F)cc2)(c2ccc(F)cc2)C1=O)N(C1CCCC1)C1CCNCC1` [Example 19, 2-[3,3-Bis(4-fluorophenyl)-2-oxopyrrolidin-1-yl]-N-cyclopentyl-N-piperidin-4-ylacetamide], in assay [1], the IC50 was determined as 1.1 µM.
Still for that read-out and setting: the result for `O=C(CN1CCC(c2ccccc2)(c2ccccc2)C1=O)N1CCN(C2CCCCC2)CC1` [Example 21, 1-[2-(4-Cyclohexylpiperazin-1-yl)-2-oxoethyl]-3,3-diphenylpyrrolidin-2-one] reads 1 µM; that for `CN1CCN(C(=O)CN2CCCC(c3ccccc3)(c3ccccc3)C2=O)CC1` [Example 22, 1-[2-(4-Methylpiperazin-1-yl)-2-oxoethyl]-3,3-diphenylpiperidin-2-one], greater than 10 µM.
In the case of `O=C(CN1CCCC(c2ccc(F)cc2)(c2ccc(F)cc2)C1=O)N1CCNCC1` [Example 23, 3,3-Bis(4-fluorophenyl)-1-(2-oxo-2-piperazin-1-ylethyl)piperidin-2-one], the inhibition in vivo at 30 mg/kg in assay [2] is -2%.
Still for that read-out and setting: the result for `O=C(CN1CCC(c2ccccc2)(c2ccccc2)C1=O)N1CCNCC1` [Example 24, 1-(2-Oxo-2-piperazin-1-ylethyl)-3,3-diphenylpyrrolidin-2-one] reads 52%.

These data come from patent publication US8815869B2, “Lactam acetamides as calcium channel blockers” (AbbVie Inc., priority 2010, dated 2014).
